Among the data in patent US4621083A, “PAF-antagonistic diazepines” (Boehringer Ingelheim KG, priority 1984, dated 1986) are IC50 values, retold here.

Each structure is given as a SMILES string. A value given as a limit tells only on which side of the number the result lay.

For the first test, the system named is PAF-induced aggregation of human thrombocytes. The test can be described thus: Inhibition of PAF-induced blood platelet aggregation in vitro. Conditions: Homo sapiens, read-out: PAF-Antag. IC50. It is filed as cell-based. As to the method: 1. Inhibition of blood platelet aggregation in vitro
The PAF-induced aggregation of human thrombocytes in vitro is used to determine PAF-antagonistic activity. To obtain thrombocyte-rich plasma (TRP), blood is taken from an uncongested vein using a plastic syringe containing 3.8% sodium citrate solution. The ratio of sodium citrate solution to blood is 1:9. After careful mixing the citrate blood is centrifuged for 20 minutes at 150 g (1200 rpm). The thrombocyte aggregation is measured using the method devised by Born and Cross (G. V. R. Born and M. J. Cross, J. Physiol. 168, 178 (1963)), by adding an aggregation initiator (PAF) to the TRP with constant stirring.
The test substance is added 2 to 3 minutes before aggregation is initiated in a volume of 10 ul. Either distilled water, ethanol and/or dimethylsulphoxide (each in suitable concentrations) can be used as solvent.
Control mixtures contain corresponding volumes of these solvents. After the initial absorption has been recorded (2 to 3 minutes) aggregation is induced with PAF (5×10^-8 M).
The maximum of the first aggregation wave is used to assess the effects of the substance. The PAF-induced maximum absorption rate (=maximum aggregation×100%) is tested at the same time in a parallel mixture (=control mixture in one of the channels of the two-channel aggregometer) as each test mixture (second channel) and is used as a 100% value.
The aggregation value attained under the effect of the test substance is given as a percentage of the control value, i.e. less than 100% in the case of an inhibition of aggregation and over 100% in the case of an increase.
Each test substance is investigated at concentrations of from 10^-3 to 10^-8 M with a random sampling of n=4 with regard to an inhibitory effect on the PAF-induced thrombocyte aggregation. Then a concentration-activity curve is drawn up using 3 concentrations and the IC50 is determined (concentration giving a 50% inhibition of aggregation).
Regarding `CCOC(=O)c1ccc2c(c1)-n1c(C)nnc1CN=C2c1ccccc1` [compound 79], the IC50 is 38 µM.

`Cc1cc2c(cc1C)-n1c(C)nnc1CN=C2c1ccccc1Cl` [compound 65]: the IC50 was 217 µM.

Consider `CC(C)(O)c1ccc2c(c1)C(c1ccccc1)=NCc1nncn1-2` [compound 81], for which the IC50 is 103 µM.

Turning to `Cc1csc2c1-n1c(C)nnc1CN=C2c1ccccc1` [compound 22], the IC50 is above 100 µM.

As for `Cc1nnc2n1-c1sc(Br)cc1C(c1ccccc1Cl)NC2` (centres unmarked) [compound 89], the IC50 is below 10 µM.

Take `CN(C)CCc1nnc2n1-c1sc(Br)cc1C(c1ccccc1Cl)N(C)C2` (centres unmarked) [compound 96]: the IC50 amounted to 26 µM.

For `Cc1nnc2n1-c1sc(Br)cc1C(c1ccccc1Br)NC2` (centres unmarked) [compound 91], the IC50 was below 5 µM.

As for `Cc1nnc2n1-c1sc(Cl)cc1C(c1ccccc1Cl)=NC2` [compound 9], the IC50 is below 2 µM.

Consider `Cc1nnc2n1-c1ccccc1C(c1ccccc1Cl)NC2` (centres unmarked) [compound 85], for which the IC50 turned out to be 8.7 µM.

With `Cc1nnc2n1-c1sccc1C(c1ccccc1Cl)=NC2` [compound 7], the IC50 is 22 µM.

For `Fc1ccccc1C1=NCc2cncn2-c2ccc(Cl)cc21` [compound 69], the IC50 was 580 µM.

As for `Cc1nnc2n1-c1ccc([N+](=O)[O-])cc1C(c1ccccc1Cl)=NC2` [compound 62], the IC50 is 10 µM.

Turning to `Cc1nnc2n1-c1ccccc1C(c1ccccc1Cl)=NC2` [compound 2], the IC50 is 8.6 µM.

`Clc1ccc2c(c1)C(c1ccccc1Cl)=NCc1nncn1-2` [compound 54]: the IC50 is 115 µM.

On to `Cc1ccc2c(c1)-n1c(C)nnc1CNC2c1ccccc1Cl` (centres unmarked) [compound 105], for which the half-maximal inhibitory concentration (IC50) is 277 µM.

On to `Cc1ccc2c(c1)C(c1ccccc1Cl)=NCc1nnc(C)n1-2` [compound 6], for which the IC50 was determined as 9.1 µM.

Take `Cc1nnc2n1-c1cc(Cl)ccc1C(c1ccccc1Cl)=NC2` [compound 5]: the IC50 was 300 µM.

As to `Cc1cnc2n1-c1sc(Br)cc1C(c1ccccc1Cl)=NC2` [compound 30], the IC50 was below 10 µM.

As for `CCOC(=O)c1ncn2c1CN=C(c1ccccc1Cl)c1cc(Br)sc1-2` [compound 52], the concentration for half-maximal inhibition (IC50) was determined as 134 µM.

For `Cc1nnc2n1-c1sc(Cl)cc1C(c1ccccc1Cl)NC2` (centres unmarked) [compound 88], the IC50 is below 5 µM.

Consider `CCOC(=O)c1ncc2n1-c1ccc(Cl)cc1C(c1ccccc1F)=NC2` [compound 70], for which the IC50 was determined as 730 µM.

As to `Cc1cc2c(cc1C)-n1c(C)cnc1CN=C2c1ccccc1Cl` [compound 48], the IC50 turned out to be 528 µM.

In the case of `Cc1nnc2n1-c1sc(C[S+](C)[O-])cc1C(c1ccccc1Cl)=NC2` (centres unmarked) [compound 46], the IC50 was below 10 µM.

For the compound `Clc1ccc2c(c1)C(c1ccccc1)=NCc1nnc(Br)n1-2` [compound 55], the IC50 was determined as 119 µM.

As for `Cc1nnc2n1-c1sc(Br)cc1C(c1ccccc1Cl)=NC2` [compound 10], the IC50 was determined as 0.5 µM.

Take `CSCc1cc2c(s1)-n1c(C)nnc1CN=C2c1ccccc1Cl` [compound 11]: the IC50 was below 5 µM.

In the case of `Clc1ccccc1C1NCc2nncn2-c2sc(Br)cc21` (centres unmarked) [compound 92], the IC50 amounted to 140 µM.

Take `CCn1nc(C)c2c1-n1c(C)nnc1CN=C2c1ccccc1Cl` [compound 27]: the IC50 was determined as 270 µM.

Regarding `Cc1nnc2n1-c1ccc(Cl)cc1C(c1ccccc1Cl)=NC2` [compound 4, Triazolam, reference compound], the IC50 worked out at 9 µM.

`Cc1nnc2n1-c1ccc(C#N)cc1C(c1ccccc1Cl)=NC2` [compound 75]: the IC50 was below 20 µM.

Regarding `Cc1nnc2n1-c1ccccc1C(c1ccccc1)=NC2`, the IC50 was determined as 16 µM.

With `Clc1ccc2c(c1)C(c1ccccc1Cl)=NCc1nnc(Br)n1-2` [compound 57], the IC50 worked out at 25 µM.

`Cc1ccc2c(c1)-n1c(C)nnc1CN=C2c1ccccc1Cl` [compound 73]: the IC50 amounted to 243 µM.

As for `Cc1nnc2n1-c1ccsc1C(c1ccccc1Cl)=NC2` [compound 24], the IC50 was 7.6 µM.

Consider `CCOC(=O)C=C(C)c1cc2c(s1)-n1c(C)nnc1CN=C2c1ccccc1Cl` [compound 83], for which the IC50 was below 50 µM.

Take `COc1nnc2n1-c1ccc(Cl)cc1C(c1ccccc1Cl)=NC2` [compound 56]: the IC50 amounted to 20.6 µM.

As to `Cc1nnc2n1-c1cc(Cl)ccc1C(c1ccccc1Cl)NC2` (centres unmarked) [compound 87], the IC50 came out at 190 µM.

With `CCOC(=O)c1ccn2c1CN=C(c1ccccc1Cl)c1cc(Cl)ccc1-2` [compound 60], the IC50 came out at 444 µM.

`Cc1ncc2n1-c1ccc(Cl)cc1C(c1ccccc1F)=NC2` [compound 31]: the IC50 is 690 µM.

As for `Cc1nnc2n1-c1sc(C#N)cc1C(c1ccccc1Cl)=NC2` [compound 58], the IC50 came to 3.8 µM.

Consider `COc1ccc2c(c1)C(c1ccccc1Cl)=NCc1nnc(C)n1-2` [compound 43], for which the IC50 was determined as 33.3 µM.

In the case of `Cc1ccccc1C1NCc2nnc(C)n2-c2ccccc21` (centres unmarked) [compound 98], the IC50 was 63 µM.

In the case of `NCc1nnc2n1-c1sc(Br)cc1C(c1ccccc1Cl)NC2` (centres unmarked) [compound 93], the concentration for half-maximal inhibition (IC50) is below 50 µM.

As for `Cc1ccc2c(c1)C(c1ccccc1Cl)NCc1nnc(C)n1-2` (centres unmarked) [compound 102], the IC50 is below 5 µM.

For the compound `COc1ccc2c(c1)C(c1ccccc1Cl)NCc1nnc(C)n1-2` (centres unmarked) [compound 100], the IC50 was below 50 µM.

In the case of `Cc1nnc2n1-c1sc(C(C)O)cc1C(c1ccccc1Cl)=NC2` (centres unmarked) [compound 77], the half-maximal inhibitory concentration (IC50) is below 10 µM.

Take `Cc1nnc2n1-c1sc(Br)cc1C(c1ccccc1Cl)N(C)C2` (centres unmarked) [compound 95]: the IC50 was determined as 7.4 µM.

With `Cc1nnc2n1-c1sc(C(=O)O)cc1C(c1ccccc1Cl)=NC2` [compound 67], the IC50 is above 100 µM.

Turning to `Cc1nc2c(s1)C(c1ccccc1)=NCc1nncn1-2` [compound 26], the IC50 was determined as 700 µM.

With `Clc1ccccc1C1=NCc2cncn2-c2sccc21` [compound 50], the IC50 is 87 µM.

Regarding `Cc1nnc2n1-c1sc([N+](=O)[O-])cc1C(c1ccccc1Cl)=NC2` [compound 12], the IC50 turned out to be 2.6 µM.

Regarding `Clc1ccccc1C1=NCc2cncn2-c2sc(Br)cc21` [compound 53], the IC50 amounted to 97.4 µM.

In the case of `Cc1nnc2n1-c1c(Cl)cccc1C(c1ccccc1Cl)=NC2` [compound 71], the IC50 came to 300 µM.

For `Cc1nnc2n1-c1sc3c(c1C(c1ccccc1Cl)=NC2)CCOC3` [compound 44], the IC50 was below 5 µM.

As to `Cc1nnc2n1-c1ccsc1C(c1ccccc1)=NC2` [compound 23], the IC50 is 19.8 µM.

For `COC(=O)c1ccc2c(c1)C(c1ccccc1)=NCc1ncc(C)n1-2` [compound 78], the IC50 was determined as 8 µM.

For the compound `COc1ccccc1C1NCc2nnc(C)n2-c2ccccc21` (centres unmarked) [compound 99], the IC50 amounted to 218 µM.

With `CC(=O)c1ccc2c(c1)C(c1ccccc1)=NCc1nnc(C)n1-2` [compound 82], the half-inhibitory concentration (IC50) came to 63 µM.

With `CC(=CC(=O)O)c1cc2c(s1)-n1c(C)nnc1CN=C2c1ccccc1Cl` [compound 59], the IC50 is above 50 µM.

Take `CCc1cc2c(s1)-n1c(C)nnc1CNC2c1ccccc1Cl` (centres unmarked) [compound 90]: the IC50 was below 5 µM.

As for `Cc1ccc2c(c1)C(c1ccccc1Cl)N(C)Cc1nnc(C)n1-2` (centres unmarked) [compound 104], the IC50 stood at 81 µM.

Regarding `Cc1nnc2n1-c1sc(CS(C)(=O)=O)cc1C(c1ccccc1Cl)=NC2` [compound 47], the IC50 was below 10 µM.

`Cc1nnc2n1-c1cc(F)ccc1C(c1ccccc1Cl)=NC2` [compound 72]: the IC50 stood at 56 µM.

As for `Cc1nnc2n1-c1sc(CC(=O)O)cc1C(c1ccccc1Cl)=NC2` [compound 76], the IC50 was above 100 µM.

Consider `CC(=O)c1cc2c(s1)-n1c(C)nnc1CN=C2c1ccccc1Cl` [compound 68], for which the IC50 is below 10 µM.

Regarding `CCOC(=O)c1ncn2c1CN=C(c1ccccc1Cl)c1ccsc1-2` [compound 49], the IC50 amounted to 210 µM.

As to `Cc1nnc2n1-c1ccc(Cl)cc1C(c1ccccc1)=NC2` [compound 3, Alprazolam, reference compound], the 50% inhibitory concentration (IC50) amounted to 14 µM.

In the case of `Clc1ccc2c(c1)C(c1ccccc1Cl)=NCc1nnc(C3CC3)n1-2` [compound 63], the IC50 was 7 µM.

For the compound `CCc1cc2c(s1)-n1c(C)nnc1CN=C2c1ccccc1Cl` [compound 8], the IC50 was below 5 µM.

Consider `Clc1ccc2c(c1)C(c1ccccc1Cl)=NCc1cncn1-2` [compound 61], for which the IC50 was 246 µM.

Turning to `Cc1nnc2n1-c1cccc(Cl)c1C(c1ccccc1Cl)=NC2` [compound 64], the IC50 is 280 µM.

With `Cc1cc2c(cc1C)-n1c(C)nnc1CNC2c1ccccc1Cl` (centres unmarked) [compound 101], the IC50 was determined as 342 µM.

In the case of `Cc1nnc2n1-c1ccc(Cl)cc1C(c1ccccc1Cl)NC2` (centres unmarked) [compound 86], the IC50 was determined as 8.3 µM.

The same test, now with this note: table 3 (formula with R7), human thrombocyte-rich plasma, aggregation induced with PAF 5×10^-8 M, read-out: PAF-Antag. IC50.
As to `CCOC(=O)c1nc(C)n2c1CNC(c1ccccc1Cl)c1cc(Cl)ccc1-2` (centres unmarked) [compound 103], the IC50 is 519 µM.

As a reminder, the IC50 is the concentration at which inhibition is half-maximal.
